Reference: the kinase profiling compilation of Christmann-Franck et al. (2016)

What was measured:
Assay in all cases: radiometric filter-binding kinase assay
TTK (human) = TTK (human) (UniProt P33981); conditions: compound 1.0 µM
PKN2 (human) = PKN2 (human) (UniProt Q16513)
INSR (human) = INSR (human) (UniProt P06213)
CSNK2A1 (human) = CSNK2A1 (human) (UniProt P68400)
MARK2 (human) = MARK2 (human) (UniProt Q7KZI7)
[1] = test system: PAK2 (human), Q13177 [T402E]
MAPK10 (human) = MAPK10 (human) (UniProt P53779)
MAPK10 (human), sequence (P53779 whole entry, looked up): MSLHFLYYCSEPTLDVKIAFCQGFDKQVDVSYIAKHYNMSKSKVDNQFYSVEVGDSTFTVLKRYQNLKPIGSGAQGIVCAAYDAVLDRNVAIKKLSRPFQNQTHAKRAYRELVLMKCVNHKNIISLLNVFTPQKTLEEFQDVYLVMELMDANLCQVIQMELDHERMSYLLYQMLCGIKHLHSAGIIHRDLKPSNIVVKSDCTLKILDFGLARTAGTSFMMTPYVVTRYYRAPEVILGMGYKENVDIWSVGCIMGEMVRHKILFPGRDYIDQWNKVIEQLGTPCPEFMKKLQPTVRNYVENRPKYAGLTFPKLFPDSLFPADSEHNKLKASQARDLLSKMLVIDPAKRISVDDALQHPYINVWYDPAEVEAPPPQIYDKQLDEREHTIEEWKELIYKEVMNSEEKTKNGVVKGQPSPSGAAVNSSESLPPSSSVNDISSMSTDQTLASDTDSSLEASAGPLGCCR

MAP2K1 (human) = MAP2K1 (human) (UniProt Q02750)
MAP2K1 (human), sequence (Q02750 whole entry, looked up): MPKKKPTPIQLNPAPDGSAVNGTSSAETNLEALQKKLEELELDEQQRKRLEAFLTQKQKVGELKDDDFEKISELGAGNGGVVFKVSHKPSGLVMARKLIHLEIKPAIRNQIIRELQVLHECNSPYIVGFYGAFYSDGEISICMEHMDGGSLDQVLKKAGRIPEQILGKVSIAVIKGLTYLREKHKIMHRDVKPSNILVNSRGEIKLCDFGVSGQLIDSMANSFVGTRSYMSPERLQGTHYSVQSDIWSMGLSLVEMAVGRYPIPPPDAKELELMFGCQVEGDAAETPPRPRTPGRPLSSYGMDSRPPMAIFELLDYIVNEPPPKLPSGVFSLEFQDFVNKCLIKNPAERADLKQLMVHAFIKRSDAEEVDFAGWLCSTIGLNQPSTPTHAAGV

MAPK13 (human) = MAPK13 (human) (UniProt O15264)
MAPK13 (human), sequence (O15264 whole entry, looked up): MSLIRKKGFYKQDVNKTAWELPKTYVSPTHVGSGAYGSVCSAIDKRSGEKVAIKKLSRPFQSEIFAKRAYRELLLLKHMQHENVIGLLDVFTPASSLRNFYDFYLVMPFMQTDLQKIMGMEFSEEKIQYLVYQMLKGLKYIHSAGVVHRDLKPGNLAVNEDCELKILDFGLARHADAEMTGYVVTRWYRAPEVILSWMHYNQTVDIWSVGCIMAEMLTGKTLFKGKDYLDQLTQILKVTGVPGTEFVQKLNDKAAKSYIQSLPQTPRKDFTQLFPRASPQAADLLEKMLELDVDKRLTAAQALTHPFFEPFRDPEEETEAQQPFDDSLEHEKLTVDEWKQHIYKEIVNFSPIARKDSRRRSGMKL

MAP2K6 (human) = MAP2K6 (human) (UniProt P52564)
IRAK4 (human) = IRAK4 (human) (UniProt Q9NWZ3)
IRAK4 (human), sequence (Q9NWZ3 whole entry, looked up): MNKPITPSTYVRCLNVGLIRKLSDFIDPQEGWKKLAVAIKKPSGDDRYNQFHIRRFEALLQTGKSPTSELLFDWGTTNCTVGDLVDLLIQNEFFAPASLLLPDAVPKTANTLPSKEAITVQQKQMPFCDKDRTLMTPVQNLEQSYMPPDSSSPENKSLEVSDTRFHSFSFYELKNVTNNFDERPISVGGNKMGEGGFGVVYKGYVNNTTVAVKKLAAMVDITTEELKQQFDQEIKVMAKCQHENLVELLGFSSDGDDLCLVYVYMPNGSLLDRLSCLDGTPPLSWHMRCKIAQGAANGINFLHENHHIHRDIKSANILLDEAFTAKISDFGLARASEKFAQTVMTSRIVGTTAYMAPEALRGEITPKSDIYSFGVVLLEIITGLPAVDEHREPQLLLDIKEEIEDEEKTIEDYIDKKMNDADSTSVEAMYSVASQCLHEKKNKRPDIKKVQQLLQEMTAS

MYLK (human) = MYLK (human) (UniProt Q15746)
[2] = test system: AKT1 (human), P31749 [S473D]
EPHB1 (human) = EPHB1 (human) (UniProt P54762)
EPHB1 (human), sequence (P54762 whole entry, looked up): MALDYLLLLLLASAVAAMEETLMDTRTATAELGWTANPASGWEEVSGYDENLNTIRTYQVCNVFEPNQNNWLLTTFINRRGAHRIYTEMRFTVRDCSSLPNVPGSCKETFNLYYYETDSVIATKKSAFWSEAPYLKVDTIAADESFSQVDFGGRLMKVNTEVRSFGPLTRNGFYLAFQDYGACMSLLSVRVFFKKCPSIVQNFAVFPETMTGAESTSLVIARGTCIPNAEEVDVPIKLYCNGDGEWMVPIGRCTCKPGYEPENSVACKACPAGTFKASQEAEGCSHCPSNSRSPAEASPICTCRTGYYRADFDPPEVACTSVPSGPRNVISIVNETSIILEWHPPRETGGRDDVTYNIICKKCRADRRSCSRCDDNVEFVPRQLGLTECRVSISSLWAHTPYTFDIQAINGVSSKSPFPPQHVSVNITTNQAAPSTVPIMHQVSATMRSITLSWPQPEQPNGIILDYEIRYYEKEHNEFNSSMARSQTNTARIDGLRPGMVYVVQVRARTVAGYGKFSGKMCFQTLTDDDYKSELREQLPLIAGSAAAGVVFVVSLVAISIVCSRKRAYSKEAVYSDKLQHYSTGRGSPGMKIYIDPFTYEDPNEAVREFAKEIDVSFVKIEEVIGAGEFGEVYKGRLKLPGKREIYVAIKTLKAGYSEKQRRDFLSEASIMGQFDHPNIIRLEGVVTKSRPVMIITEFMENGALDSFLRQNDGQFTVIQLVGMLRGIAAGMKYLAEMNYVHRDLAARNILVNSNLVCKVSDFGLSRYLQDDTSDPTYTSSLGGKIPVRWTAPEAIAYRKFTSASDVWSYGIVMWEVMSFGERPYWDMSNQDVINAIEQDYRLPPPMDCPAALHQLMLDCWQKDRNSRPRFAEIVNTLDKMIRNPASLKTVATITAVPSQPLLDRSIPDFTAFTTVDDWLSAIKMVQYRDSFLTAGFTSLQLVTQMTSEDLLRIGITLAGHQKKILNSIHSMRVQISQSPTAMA

PIM3 (human) = PIM3 (human) (UniProt Q86V86)
INSRR (human) = INSRR (human) (UniProt P14616)
DYRK3 (human) = DYRK3 (human) (UniProt O43781)
GSK3B (human) = GSK3B (human) (UniProt P49841); conditions: compound 1.0 µM
MARK1 (human) = MARK1 (human) (UniProt Q9P0L2)
MARK1 (human), sequence (Q9P0L2 whole entry, looked up): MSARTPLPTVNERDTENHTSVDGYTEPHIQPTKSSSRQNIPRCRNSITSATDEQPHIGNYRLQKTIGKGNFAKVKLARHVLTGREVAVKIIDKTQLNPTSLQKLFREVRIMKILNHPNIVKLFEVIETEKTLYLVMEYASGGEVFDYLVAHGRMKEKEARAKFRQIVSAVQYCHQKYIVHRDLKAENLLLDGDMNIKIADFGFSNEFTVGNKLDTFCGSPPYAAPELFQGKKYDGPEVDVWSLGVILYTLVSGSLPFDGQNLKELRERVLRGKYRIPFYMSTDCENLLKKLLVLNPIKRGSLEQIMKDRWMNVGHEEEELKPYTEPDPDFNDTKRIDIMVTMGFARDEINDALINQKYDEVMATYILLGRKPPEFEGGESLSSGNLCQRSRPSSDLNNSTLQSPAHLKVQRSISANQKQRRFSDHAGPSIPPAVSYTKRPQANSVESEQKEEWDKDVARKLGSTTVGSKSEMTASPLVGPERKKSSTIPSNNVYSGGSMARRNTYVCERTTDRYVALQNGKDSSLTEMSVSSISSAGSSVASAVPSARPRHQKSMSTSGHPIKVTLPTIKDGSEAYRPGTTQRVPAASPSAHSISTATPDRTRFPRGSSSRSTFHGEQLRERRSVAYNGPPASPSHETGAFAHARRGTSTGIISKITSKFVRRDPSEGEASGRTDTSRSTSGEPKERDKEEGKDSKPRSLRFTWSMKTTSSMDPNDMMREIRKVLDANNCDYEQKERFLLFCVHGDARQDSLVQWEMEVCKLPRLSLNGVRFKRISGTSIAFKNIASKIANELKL

MARK2 (human), sequence (Q7KZI7 whole entry, looked up): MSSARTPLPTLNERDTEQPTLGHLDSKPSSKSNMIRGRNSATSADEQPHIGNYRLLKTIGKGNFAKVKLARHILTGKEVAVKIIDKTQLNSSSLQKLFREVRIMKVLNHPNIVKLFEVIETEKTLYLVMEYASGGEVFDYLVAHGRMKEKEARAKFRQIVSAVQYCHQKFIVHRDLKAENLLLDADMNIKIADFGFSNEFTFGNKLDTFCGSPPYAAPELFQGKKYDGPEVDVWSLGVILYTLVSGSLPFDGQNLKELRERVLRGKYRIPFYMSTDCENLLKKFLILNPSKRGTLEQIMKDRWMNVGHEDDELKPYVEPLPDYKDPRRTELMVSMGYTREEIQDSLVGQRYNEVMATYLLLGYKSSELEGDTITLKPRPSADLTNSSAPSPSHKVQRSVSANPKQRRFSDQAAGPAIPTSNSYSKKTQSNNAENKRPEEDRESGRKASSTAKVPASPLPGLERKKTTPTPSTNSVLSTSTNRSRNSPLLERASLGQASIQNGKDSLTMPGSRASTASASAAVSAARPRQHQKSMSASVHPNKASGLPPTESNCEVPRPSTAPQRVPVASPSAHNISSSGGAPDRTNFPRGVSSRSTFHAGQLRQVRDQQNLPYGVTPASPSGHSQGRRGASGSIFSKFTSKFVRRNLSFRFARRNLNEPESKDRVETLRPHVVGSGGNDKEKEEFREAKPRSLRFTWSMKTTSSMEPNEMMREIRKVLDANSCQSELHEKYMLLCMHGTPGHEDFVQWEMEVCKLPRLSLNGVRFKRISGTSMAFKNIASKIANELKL
CSNK2A1 (human), sequence (P68400 whole entry, looked up): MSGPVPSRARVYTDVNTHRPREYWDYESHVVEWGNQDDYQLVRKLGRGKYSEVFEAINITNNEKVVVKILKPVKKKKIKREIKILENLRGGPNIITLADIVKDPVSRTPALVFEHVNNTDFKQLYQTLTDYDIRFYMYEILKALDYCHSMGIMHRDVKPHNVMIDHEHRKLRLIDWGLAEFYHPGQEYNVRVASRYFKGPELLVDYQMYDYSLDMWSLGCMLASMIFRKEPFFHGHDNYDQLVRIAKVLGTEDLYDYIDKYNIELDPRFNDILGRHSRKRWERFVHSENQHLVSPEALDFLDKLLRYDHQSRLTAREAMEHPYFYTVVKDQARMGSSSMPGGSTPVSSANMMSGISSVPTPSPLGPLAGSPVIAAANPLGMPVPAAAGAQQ

COc1ccc(N(C(=O)Nc2c(C)cccc2C)c2cc(Nc3ccc(N4CCN(C)CC4)cc3)ncn2)c(OC)c1
residual activity (TTK (human)): 75% | residual activity (PKN2 (human); compound 0.1 µM): 99% | residual activity (PKN2 (human); compound 1.0 µM): 90% | residual activity (INSR (human); compound 0.01 µM): 115% | residual activity (INSR (human); compound 0.1 µM): 106% | residual activity (INSR (human); compound 1.0 µM): 106% | residual activity (CSNK2A1 (human); compound 0.01 µM): 98% | residual activity (CSNK2A1 (human); compound 0.1 µM): 100% | residual activity (CSNK2A1 (human); compound 1.0 µM): 100% | residual activity (MARK2 (human); compound 0.01 µM): 101% | residual activity (MARK2 (human); compound 0.1 µM): 90% | residual activity (MARK2 (human); compound 1.0 µM): 63% | residual activity ([1]; compound 0.01 µM): 87% | residual activity ([1]; compound 0.1 µM): 59% | residual activity ([1]; compound 1.0 µM): 18% | residual activity (MAPK10 (human); compound 0.01 µM): 93% | residual activity (MAPK10 (human); compound 0.1 µM): 77% | residual activity (MAPK10 (human); compound 1.0 µM): 38% | residual activity (MAP2K1 (human); compound 0.01 µM): 107% | residual activity (MAP2K1 (human); compound 0.1 µM): 106% | residual activity (MAP2K1 (human); compound 1.0 µM): 97% | residual activity (MAPK13 (human); compound 0.01 µM): 102% | residual activity (MAPK13 (human); compound 0.1 µM): 97% | residual activity (MAPK13 (human); compound 1.0 µM): 98% | residual activity (MAP2K6 (human); compound 0.1 µM): 101% | residual activity (MAP2K6 (human); compound 1.0 µM): 92% | residual activity (IRAK4 (human); compound 0.01 µM): 90% | residual activity (IRAK4 (human); compound 0.1 µM): 97% | residual activity (IRAK4 (human); compound 1.0 µM): 90% | residual activity (MYLK (human); compound 0.01 µM): 99% | residual activity (MYLK (human); compound 0.1 µM): 89% | residual activity (MYLK (human); compound 1.0 µM): 91% | residual activity ([2]; compound 0.01 µM): 98% | residual activity ([2]; compound 0.1 µM): 92% | residual activity ([2]; compound 1.0 µM): 91% | residual activity (EPHB1 (human); compound 0.01 µM): 62% | residual activity (EPHB1 (human); compound 0.1 µM): 49% | residual activity (EPHB1 (human); compound 1.0 µM): 2% | residual activity (PIM3 (human); compound 0.01 µM): 103% | residual activity (PIM3 (human); compound 0.1 µM): 110% | residual activity (PIM3 (human); compound 1.0 µM): 103% | residual activity (INSRR (human); compound 0.01 µM): 113% | residual activity (INSRR (human); compound 0.1 µM): 112% | residual activity (INSRR (human); compound 1.0 µM): 107% | residual activity (DYRK3 (human); compound 0.01 µM): 92% | residual activity (DYRK3 (human); compound 0.1 µM): 92% | residual activity (DYRK3 (human); compound 1.0 µM): 97% | residual activity (GSK3B (human)): 88% | residual activity (MARK1 (human); compound 0.01 µM): 88% | residual activity (MARK1 (human); compound 0.1 µM): 87% | residual activity (MARK1 (human); compound 1.0 µM): 53%
